Measurements as given in patent publication EP4624457A1, “I[…] DERIVATIVES, I[…] NEURODEGENERATIVE DISEASES” (Centre National de la Recherche Scientifique, priority 2024, dated 2025).
“And” between values parts separate entries of the source, which are not always exact repeats. Equal entries are not always repeated. Where two headings read alike, the source gives them in different places.

Biological target: T1, human α7 nAChR subtype (Homo sapiens, UniProt P36544)
T1 construct: expressed in transfected cells; host or cells: Xenopus laevis oocytes injected with mRNA
Test: Two-electrode voltage clamp electrophysiology on Xenopus laevis oocytes expressing the α7 nAChR
Assay type: cell-based
Conditions: for IC50: antagonistic activity, TEVC, value (95% CI), 100 µM ACh, 45 s preincubation, Figures 5 and 7
Source text: The emerging cyclic imines toxins (CiTXs) of global distribution across coastal environments that are produced by dinoflagellates move fast up the human food chain through shellfish. The CiTX family includes 44 compounds: 7 gymnodimines (A-E, 12-methylgymnodimine and 16-desmethyl gymnodimine D), 16 spirolides (A-D, G-I, 13-desmethyl spirolide-C, 27-Hydroxy-13-desmethyl spirolide-C, 13,19-didesmethyl spirolide-C, 20-hydroxy-13,19-didesmethyl spirolide- C, 27-hydroxy-13,19-spirolide-C, 27-Oxo-13,19-didesmethyl spirolide-C, 13-desmethyl spirolide-D, 20-hydroxy-13,19-didesmethyl spirolide-D and 20-methyl spirolide-G), 8 pinnatoxins (A-H), 3 pteriatoxins (A-C), 6 prorocentrolides (A-B, 4- hydroxyprorocentrolide, 9,51-dihydro prorocentrolide, 30-sulfate prorocentrolide and 14-O-acetyl-4-hydroxyprorocentrolide), 1 spiroprorocentrimine, 2 portimines (A and B), and 1 kabirimine, (Aráoz et al. (2020) Cyclic imine toxins survey in coastal european shellfish samples: Bioaccumulation and mode of action of 28-O-palmitoyl ester of pinnatoxin-G. First report of portimine-A bioaccumulation. Harmful Algae, 98 [1]). The spiroimine moiety is the major feature characterizing cyclic imine toxins. The exception to this rule is prorocentrolides in which a hexahydroisoquinoline group replaces the spiroimine motif, (Torigoe et al. (1988) Prorocentrolide, a toxic nitrogenous macrocycle from a marine dinoflagellate, Prorocentrum-lima. Journal of the American Chemical Society, 110:7876-7877 [2]). Portimines display a 5-membered cyclic imine ring; gymnodimines, prorocentrolides, spiroprorocentrimines and kabirimine present a 6-membered imine ring, while spirolides, pinnatoxins and pteriatoxins display a 7-membered imine ring. Cyclic imine toxins are fast acting neurotoxins that, when administered intraperitoneally or by gavage at lethal doses, kill mice by respiratory arrest within minutes following blockade of neuromuscular nicotinic acetylcholine receptors (nAChR). The mode of action of several cyclic imines on nAChRs has been characterized, namely: gymnodimine-A, 13- desmethyl spirolide- C, 13,19-didesmethyl spirolide-C, 20-methyl spirolide-G, pinnatoxin-A, pinnatoxin-G, prorocentrolide-A and portimine, (Lamoise et al. (2017) Physico-chemical and functional characterization of portimine purified from Vulcanodinium rugosum strain IFR-VRU-01. In "Marine and Fresh-Water Harmful Algae". Proceedings of the 17th International Conference on Harmful Algae (Proença, L.A.O. and Hallegraeff, G. eds) pp. 126-129 ISSHA and IOC/UNESCO, Florianapolis; Molgó et al. (2017) Cyclic imine toxins from dinoflagellates: a growing family of potent antagonists of the nicotinic acetylcholine receptors. Journal of Neurochemistry, 142:41-51 [4]). They are potent antagonists of muscular and neuronal nicotinic acetylcholine receptors with pinnatoxin-A displaying picomolar affinities towards the α7 nicotinic acetylcholine receptor subtype (Aráoz et al. (2011) Total synthesis of pinnatoxins A and G and revision of the mode of action of pinnatoxin A. Journal of the American Chemical Society 133(27):10499-10511 [5]). In contrast, prorocentrolide and portimine show micromolar affinities towards the α7 nicotinic acetylcholine receptor subtype (Lamoise et al. (2017), Stivala et al. (2015) Synthesis and biology of cyclic imine toxins, an emerging class of potent, globally distributed marine toxins. Natural Product Reports, 32(3):411-435 [6]) (Table1). Table 1. Antagonistic activity of CiTX (Two-Electrodes Voltage Clamp electrophysiology).
• Figure 1 represents the chemical structure of ingrilimine according to compound (Illa) formula. • Figure 2 represents the cytotoxic activity of ingrilimine. A2780 ovarian and HT29 colorectal carcinoma cells were grown in RPMI 1640 supplemented with 10% fetal calf serum (FCS) and 1% glutamine. […]

T1 sequence (P36544 23-502): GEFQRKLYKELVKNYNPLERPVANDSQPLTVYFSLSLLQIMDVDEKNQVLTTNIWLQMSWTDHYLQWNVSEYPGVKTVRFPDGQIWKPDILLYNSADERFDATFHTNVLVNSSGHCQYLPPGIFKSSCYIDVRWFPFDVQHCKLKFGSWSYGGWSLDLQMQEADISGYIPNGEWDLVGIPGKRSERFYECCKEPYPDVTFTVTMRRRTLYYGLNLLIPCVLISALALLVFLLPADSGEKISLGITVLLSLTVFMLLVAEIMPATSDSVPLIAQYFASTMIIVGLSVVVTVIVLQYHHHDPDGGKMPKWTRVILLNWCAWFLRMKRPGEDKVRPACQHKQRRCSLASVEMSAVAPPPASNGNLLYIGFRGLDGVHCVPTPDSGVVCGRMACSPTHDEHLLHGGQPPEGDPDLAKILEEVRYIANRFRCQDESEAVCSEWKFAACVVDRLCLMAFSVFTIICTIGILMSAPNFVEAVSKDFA

**Q.** With `C=CC1=C[C@@H]2[C@@H]3O[C@]4(CC[C@H](O4)[C@@H](C)C[C@@H](O)C3=O)C[C@H](O)C3=NCC[C@@]32CC1` [Portimine-A] as the molecule, how does the IC50 (read-out: nAChR subtype (nM; 95% CI) α7 (human)) read?
**A.** 21200 nM

**Q.** `C=CC1=C[C@@H]2C[C@@H](O)[C@@H](O)/C(C)=C/C/C(C)=C/CCC3=NCCC[C@]32CC1` [Ingrilimine, ingrilimine] was tested. Which “peak amplitude relative to the peak amplitude evoked by 100 µM ACh” value (agonist activity, 10 µM ingrilimine) did it give?
**A.** -25%

**Q.** And the “behaviour at micromolar concentrations” value (micromolar concentrations, antagonist at nanomolar concentrations)?
**A.** behaves as an agonist

**Q.** And the IC50 (nAChR subtype (nM; 95% CI) α7 (human))?
**A.** 2.3 nM and 2.29 nM

**Q.** And the “times more potent than portimine against the human α7 nAChR subtype” value (ratio of IC50 values)?
**A.** ~ 10 000 times
